Experimental data: patent US11440907B1 (Merck Patent GmbH, priority 2018, dated 2022)

System: XBP1(u)-luciferase splicing reporter in HepG2 hepatoma cells
Assay: HepG2 XBP1 reporter assay (XBP1(u)-Luc)
Type: cell-based
Conditions: Homo sapiens
Description: HepG2 XBP1 Reporter Assay
HepG2 hepatoma cells were transduced with a retrovirus encoding the cDNA for unspliced (u) XBP1, which contains a non-processed intron, fused to the cDNA for firefly luciferase. Upon induction of ER stress, the non-processed intron of XBP1(u) is spliced out by active IRE1alpha endonuclease. The resulting spliced (s) XBP1 is now in frame with luciferase which causes the production of active luciferase protein, resulting in bioluminescence
HepG2 XBP1(u)-Luc cells were plated […] Cultured cells with a stably transfected reporter construct were plated at approximately 30,000 cells per well into 96 well multi-well plates for twenty four hours. The testing compounds were then added to the wells in 3-fold serial dilutions using a twenty seven micromolar top concentration. A series of control wells for each cell type received only compound solvent. Six hours after the addition of compound, reporter activity for luciferase was assayed, by addition of the SteadyGlo luminescence reagent (Promega). The reporter luminescence activity was measured using Pherastar plate reader (BMG Labtech). Readings was normalized to DMSO only treated cells, and normalized activities were then used in the IC50 calculations. The HepG2 XBP1 reporter assay data are summarized in Tables 3-5: A<0.6 μM; 0.6 μM≤B<2.0 μM; 2.0 μM≤C<5.0 μM; D≥5.0 μM.

[1] = 6 hours after compound addition, Table 4
[2] = 6 h, six hours after addition of compound

Structure (SMILES)	IC50 [1] [nM]	IC50 [2] [nM]
CSCOc1ccc([C@H]2COCCCN2c2cc(C)nc(N)n2)c(Cl)c1 [C-121, 4-[(S)-3-(2-Chloro-4-methylsulfanylmethoxy-phenyl)-[1,4]oxazepan-4-yl]-6-methyl-pyrimidin-2-ylamine]	≥ 5000	
Cc1cc(N2CCCOCC2c2ccc(OCC(N)=O)cc2Cl)nc(N)n1 (stereo not drawn) [C-53, 2-{4-[4-(2-Amino-6-methyl-pyrimidin-4-yl)-[1,4]oxazepan-3-yl]-3-chloro-phenoxy}-acetamide]	< 600	
Cc1cc(N2CCCOCC2c2ccc(O[C@H](C)CO)cc2Cl)nc(N)n1 (stereo partly drawn) [C-60, (R)-2-{4-[4-(2-Amino-6-methyl-pyrimidin-4-yl)-[1,4]oxazepan-3-yl]-3-chloro-phenoxy}-propan-1-ol]	600 to 2000	
Cc1cc(N2CCCOC[C@@H]2c2ccc(N3CCC(C)(O)CC3)c(F)c2Cl)nc(N)n1 [C-126]	600 to 2000	
COc1cc(Cl)c(C2COCCCN2c2cc(C)nc(N)n2)cc1OC1CCC1 (stereo not drawn) [C-56]	2000 to 5000	
Cc1cc(N2CCCOCC2c2cc(C)c(O)cc2Cl)nc(N)n1 (stereo not drawn) [C-128]	600 to 2000	
CCOC(=O)[C@H](C)Oc1cc(Cl)c([C@H]2COCCCN2c2cc(C)nc(N)n2)cc1OC [C-150]	600 to 2000	
Nc1nccc(N2CCCOC[C@H]2c2cc3c(cc2Cl)OCCCO3)n1 [C-71]	≥ 5000	
Cc1cc(N2CCCOCC2c2ccc(CS(C)(=O)=O)nc2Cl)nc(N)n1 (stereo not drawn) [C-82]	600 to 2000	
CCOc1cc(Cl)c([C@H]2COCCCN2c2cc(C)nc(N)n2)cc1OCC [C-103]	< 600	
Cc1cc(N2CCCOCC2c2cc(O)c(Cl)cc2Cl)nc(N)n1 (stereo not drawn) [C-9]	600 to 2000	
CCCOc1cc(Cl)c(C2COCCCN2c2cc(C)nc(N)n2)cc1OCC (stereo not drawn) [C-91]	600 to 2000	
Cc1cc(N2CCCOC[C@H]2c2cc3c(cc2Cl)NC(=O)CO3)nc(N)n1 [C-131]	600 to 2000	
CCOc1cc(Cl)c([C@@H]2COCCCN2c2cc(C)nc(N)n2)cc1OC [C-86]	≥ 5000	
COc1cc([C@@H]2COCCCN2c2cc(C)nc(N)n2)c(Cl)cc1O [C-79]	≥ 5000	
Cc1cc(N2CCCOCC2c2cc(OC(F)(F)F)c(N)cc2Cl)nc(N)n1 (stereo not drawn) [C-130]	600 to 2000	

Further lines, results first:

IC50 [1] [nM]	IC50 [2] [nM]	Structure (SMILES)
	< 600	CCc1ccccc1[C@H]1COCCCN1c1cc(C)nc(N)n1 [D-106]
	≥ 5000	CCc1cc(N2CCCOC[C@H]2c2cc(O)c(OC)cc2Cl)nc(N)n1 [D-179]
	≥ 5000	Cc1cc(N2CCCOCC2c2cnc(CS(C)(=O)=O)nc2O)nc(N)n1 [D-172]
	600 to 2000	C#Cc1ccccc1C1COCCCN1c1cc(C)nc(N)n1 [D-113]
	< 600	Cc1cc(N2CCCOC[C@@H]2c2cc(CN)c(Cl)cc2C)nc(N)n1 [D-99]
	< 600	Cc1cc(N2CCCOC[C@@H]2c2cc3c(cc2Cl)NC[C@@](C)(C(N)=O)O3)nc(N)n1 [D-120]
	≥ 5000	CCOC(=O)c1cc(C2COCCCN2c2cc(C)nc(N)n2)c(Cl)cc1C#N [D-129]
	2000 to 5000	Cc1cc(N2CCCOCC2c2ccc3[nH]ncc3c2)nc(N)n1 [D-108]
	≥ 5000	Cc1cc(N2CCCOC[C@H]2c2cc(O)c(C(=O)N3CCOCC3)cc2Cl)nc(N)n1 [D-189]
	≥ 5000	Cc1cc(N2CCCOCC2c2ccc(C(=O)O)cc2Cl)nc(N)n1 [D-187]
	≥ 5000	Cc1cc(N2CCCOCC2c2ccc(S(C)(=O)=O)cc2C#N)nc(N)n1 [D-190]
	≥ 5000	Cc1cc(N2CCCOCC2c2ccc(Cl)cc2C(=O)O)nc(N)n1 [D-177]
	600 to 2000	Cc1cc(N2CCCOCC2c2cc(CN)c(Cl)cc2C)nc(N)n1 [D-73]
	< 600	Cc1cc(N2CCCOC[C@H]2c2cnc(CS(C)(=O)=O)cc2Cl)nc(N)n1 [D-76]
	< 600	Cc1cc(N2CCCOCC2c2cc3c(cc2Cl)NC[C@@](C)(C(=O)OC(C)C)O3)nc(N)n1 (stereo partly drawn) [D-125]
	≥ 5000	Cc1cc(N2CCCOC[C@@H]2c2cc(O)c(C(=O)NCCO)cc2Cl)nc(N)n1 [D-130]
	600 to 2000	C=CCOc1cc(Cl)c(C2COCCCN2c2cc(C)nc(N)n2)cc1OCC [D-48]
	2000 to 5000	Cc1cc(N2CCCOCC2c2ccc(NC(=O)CC3CC3)cc2Cl)nc(N)n1 [D-94]
	600 to 2000	Cc1cc(N2CCCOCC2c2ccc(NC(=O)CC(C)C)cc2Cl)nc(N)n1 [D-92]
	< 600	CC(=O)Nc1cc(Cl)c(C2COCCCN2c2cc(C)nc(N)n2)cc1O [D-109]
	≥ 5000	C#CCOc1cc(Cl)c([C@@H]2COCCCN2c2cc(C)nc(N)n2)cc1OC [D-178]
	600 to 2000	CCOc1cc(C2COCCCN2c2cc(C)nc(N)n2)c(Cl)cc1OCC(N)=O [D-72]
	600 to 2000	Cc1cc(N2CCCOC[C@@H]2c2ccc(N3C[C@@H](C)O[C@@H](C)C3)cc2Cl)nc(N)n1 [D-84]
